Measured values taken from patent publication US12686674B2, “Crystal form of compound represented by formula I, and preparation therefor and application thereof” (Shanghai Zhimeng Biopharma, Inc., priority 2021, dated 2026).
In brackets after ≈: the same amount, converted by molar mass.

Experiment: Rough solubility at room temperature
Type: physicochemical
Method: Specifically, ~2 mg of the starting material was weighed in an HPLC vial, the solvents in the following table were added step by step (50/50/200/700 μL) until the solid is completely dissolved or the total volume reaches 1.0 mL.

O=C1CO[C@H](c2cn(-c3ccc(Br)cc3)nc2-c2ccc(F)cc2)N1CCc1ccc2[nH]c(=O)[nH]c2c1 [Crystal form A]
solubility (organic solvent or mixture, thermodynamic from solid, 1,4-Dioxane): 6900 to 20700 µg/mL (≈ 12.3 to 36.8 mM) | solubility (organic solvent or mixture, thermodynamic from solid, 2-MeTHF): 6900 to 20700 µg/mL (≈ 12.3 to 36.8 mM) | solubility (organic solvent or mixture, thermodynamic from solid, ACN): < 2100 µg/mL | solubility (organic solvent or mixture, thermodynamic from solid, Acetone): 6800 to 20300 µg/mL (≈ 12.1 to 36.1 mM) | solubility (organic solvent or mixture, thermodynamic from solid, CH3COOH): > 41800 µg/mL | solubility (organic solvent or mixture, thermodynamic from solid, CPME): < 2000 µg/mL | solubility (organic solvent or mixture, thermodynamic from solid, DCM): < 2100 µg/mL | solubility (organic solvent or mixture, thermodynamic from solid, DMF): > 41200 µg/mL | solubility (organic solvent or mixture, thermodynamic from solid, DMSO): > 40400 µg/mL | solubility (organic solvent or mixture, thermodynamic from solid, EtOAc): < 2100 µg/mL | solubility (organic solvent or mixture, thermodynamic from solid, EtOH): 2000 to 6700 µg/mL (≈ 3.56 to 11.9 mM) | solubility (organic solvent or mixture, thermodynamic from solid, IPA): < 2100 µg/mL | solubility (organic solvent or mixture, thermodynamic from solid, IPAc): < 2000 µg/mL | solubility (organic solvent or mixture, thermodynamic from solid, MEK): 2000 to 6600 µg/mL (≈ 3.56 to 11.7 mM) | solubility (organic solvent or mixture, thermodynamic from solid, MIBK): < 2000 µg/mL | solubility (organic solvent or mixture, thermodynamic from solid, MTBE): < 2000 µg/mL | solubility (organic solvent or mixture, thermodynamic from solid, MeOH): 2000 to 6600 µg/mL (≈ 3.56 to 11.7 mM) | solubility (organic solvent or mixture, thermodynamic from solid, THF): > 40400 µg/mL | solubility (organic solvent or mixture, thermodynamic from solid, Toluene): < 2000 µg/mL | solubility (organic solvent or mixture, thermodynamic from solid, n-Heptane): < 2000 µg/mL | solubility (water, thermodynamic from solid, H2O): < 2100 µg/mL
